Five compounds from paper PMC10623572, “Subtle Structural Modification of a Synthetic Cannabinoid Receptor Agonist Drastically Increases its Efficacy at the CB1 Receptor” (ACS Chemical Neuroscience, 2023) can be followed below.

Assay [1] deals with T1, CB1R (presynaptic, mouse hippocampus) (Mus musculus, UniProt P47746).
T1 construct: gene Cnr1; native receptor in hippocampal brain slices
The assay is described as follows: fEPSP field recording, inhibition of glutamate release in hippocampal slices. To be noted: agonist; native presynaptic receptor, downstream read-out; 31-32 °C; 50 µM caffeine; reversed by AM251.

The target of assay [2] is T2, CB1R (CB1R-Rluc) (Homo sapiens, UniProt P21554).
T2 construct: gene CNR1; Rluc-fused receptor in HEK-293T cells; with mVenus-Gi1 plus Gbeta1/Ggamma2, or beta-arrestin 2-Venus plus GRK2
T2 sequence (P21554 whole entry, the tested form may be a part): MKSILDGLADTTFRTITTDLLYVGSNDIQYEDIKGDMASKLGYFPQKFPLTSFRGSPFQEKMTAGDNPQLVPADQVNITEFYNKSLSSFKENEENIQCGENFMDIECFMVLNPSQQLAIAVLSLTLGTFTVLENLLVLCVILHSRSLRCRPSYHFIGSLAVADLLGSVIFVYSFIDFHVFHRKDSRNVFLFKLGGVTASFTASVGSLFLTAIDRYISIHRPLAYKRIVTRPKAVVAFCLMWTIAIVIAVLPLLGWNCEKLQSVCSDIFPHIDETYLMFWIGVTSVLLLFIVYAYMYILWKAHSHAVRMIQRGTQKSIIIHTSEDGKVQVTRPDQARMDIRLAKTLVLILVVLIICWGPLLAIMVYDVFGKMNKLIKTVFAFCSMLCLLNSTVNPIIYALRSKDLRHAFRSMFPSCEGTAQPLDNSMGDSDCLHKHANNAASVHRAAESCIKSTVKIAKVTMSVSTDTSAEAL
The experiment in a line: BRET CB1R-Rluc/Gi1-Venus engagement. Type of assay: cell-based. On the technique in general: Bioluminescence resonance energy transfer reports proximity on the nanometre scale.

Assay [3] addresses T2, CB1R (CB1R-Rluc). The experiment in a line: BRET CB1R-Rluc/beta-arrestin 2-Venus recruitment. It counts as cell-based. An excerpt:
BRET CB1R-Rluc/beta-arrestin 2-Venus recruitment on CB1R (CB1R-Rluc)

Where [4] appears, read: read-out: 5F-MMB-PICA (converted).
Where [5] appears, read: read-out: 5F-SDB-006 (converted).

T1 sequence (P47746 whole entry): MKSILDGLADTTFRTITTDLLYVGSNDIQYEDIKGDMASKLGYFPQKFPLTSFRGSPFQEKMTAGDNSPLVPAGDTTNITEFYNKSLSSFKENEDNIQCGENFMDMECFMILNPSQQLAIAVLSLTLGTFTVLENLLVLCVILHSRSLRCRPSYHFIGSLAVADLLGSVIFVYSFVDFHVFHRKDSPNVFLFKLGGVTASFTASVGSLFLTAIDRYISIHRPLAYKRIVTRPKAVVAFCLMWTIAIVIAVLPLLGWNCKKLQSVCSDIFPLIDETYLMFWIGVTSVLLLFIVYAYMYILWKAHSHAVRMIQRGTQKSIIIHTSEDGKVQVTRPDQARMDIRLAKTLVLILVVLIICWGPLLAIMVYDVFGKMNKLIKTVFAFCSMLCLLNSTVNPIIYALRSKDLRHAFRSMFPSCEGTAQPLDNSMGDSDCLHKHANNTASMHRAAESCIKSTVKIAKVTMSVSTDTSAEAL

Broadly, the pEC50 is the negative decadic logarithm of the EC50, by convention in mol/L. In the case of `COC(=O)C(NC(=O)c1cn(CCCCCF)c2ccccc12)C(C)(C)C` (stereo not shown) [5F-MDMB-PICA], in assay [1], the pEC50 stood at 7.20.

In the case of `COC(=O)C(NC(=O)c1cn(CCCCCF)c2ccccc12)C(C)C` (stereo not shown) [5F-MMB-PICA], the EC50 is 2950 nM on CB1R (CB1R-Rluc) [2] (setting [4]) and 3630 nM at CB1R (CB1R-Rluc) [3] (setting [4]). The negative logarithm of the EC50 (pEC50) in assay [1] is 6.72.

As to `O=C(Nc1cccc2ccccc12)c1cn(CCCCCF)c2ccccc12` [5F-NNEI], the EC50 on CB1R (CB1R-Rluc) [2] (read-out: 5F-NNEI (converted)) was 4680 nM; on CB1R (CB1R-Rluc) [3] (read-out: 5F-NNEI), 5250 nM.

Turning to `O=C(NCc1ccccc1)c1cn(CCCCCF)c2ccccc12` [5F-SDB-006], the EC50 was 1480 nM at CB1R (CB1R-Rluc) [2] (setting [5]) and 2450 nM at CB1R (CB1R-Rluc) [3] (setting [5]).

As to `O=C(c1cccc2ccccc12)c1cn(CCCCCF)c2ccccc12` [AM2201], the EC50 on CB1R (CB1R-Rluc) [2] (read-out: AM2201 (converted)) was 339 nM; at CB1R (CB1R-Rluc) [3] (read-out: AM2201 (converted)), 759 nM.
